The values below come from patent US20090064375A1, “Paraquat Resistance Gene and a Vascular Tissue- and Trichome-specific Promoter” (priority 2003, published 2009).

In this assay the test system is non-transformant (wild-type Arabidopsis thaliana ecotype Col-0). The experiment in a line: Evaluation of paraquat resistance: growth of germinated individuals in paraquat-containing ½ MS medium, non-transformant. To be noted: 3 μM of paraquat in ½ MS agar medium, cultured for eight days at 22° C., FIG. 2C. In kind it is in vivo. The protocol:
Seeds derived from the produced AtMVR gene transformant and non-transformant (wild-type Arabidopsis thaliana ecotype Col-0) were sterilely inoculated in ½ MS agar (1%) medium (2.3 g/l of Murashige and Skoog Plant Salt Mixture (Wako Pure Chemical Industries Ltd.), 1.5 mg/l of thiamine hydrochloride, 2.5 mg/l of nicotinic acid, 0.25 mg/l of pyridoxine hydrochloride, 1.5% of sucrose) containing 3 μM of paraquat (methyl viologen (Sigma Chemical Co.)), and cultured for eight days at 22° C. under irradiation of light of 60 μmol/m^2/s (cycle of 16 hrs photoperiod/8 hrs dark period). After culture, the growth of germinated individuals was evaluated. The results are shown in FIG. 2, wherein FIG. 2B is a photograph showing growth of an AtMVR gene transformant and a non-transformant in a ½ MS culture medium without paraquat, and FIG. 2C is a photograph showing growth of an AtMVR gene transformant and a non-transformant in a ½ MS culture medium with paraquat. FIG. 2A is a schematic diagram showing the location of the AtMVR gene transformant and the non-transformant in FIGS. 2B and 2C.

As for `C[n+]1ccc(-c2cc[n+](C)cc2)cc1` [paraquat], the “growth of germinated individuals in a medium containing paraquat” value is “developed chlorosis and died”.
